The test system of this experiment is ASTM test fungi. In words: Agar plate testing. The format is cell-based. The settings on record: agar plates, 14 days at 30 C. An excerpt:
ASTM test fungi in Petri dishes were subjected to Treatment solutions with and without unsaturated fatty esters (linoleic, oleic, linolenic and arachidonic esters as a 1:1:1:1 ratio). The agar plate test method allowed for rapid determinations of antifungal efficacy against wood-degrading strains of concern. The certified cultures were obtained from the American Type Culture Collection (ATCC) and propagated as per the product information sheets: • Irpex lacteus: ATCC number 11245, yeast medium Difco 0712 (ATCC medium no. 200) • Neolentius lepideus: ATCC number 12653, YM agar Difco 0712 (ATCC medium no. 200) • Postia poria: ATCC number 11538, YM agar Difco 0712 (ATCC medium no. 200) • Pleurotus ostreatus: ATCC number 32237, YM agar Difco 0712 (ATCC medium no. 200) • Trametes versicolor: ATCC number 42462, Hagem's-Modess medium (ATCC medium no. 479) • Gleoephyllum trabeum: ATCC number 11539, Potato Dextrose Agar with 0.5% yeast extract (ATCC medium no. 337)
Each plate was then inoculated in a flame induced sterile environment with a 5 mm diameter agar plug fungal colony of those fungi listed. […] The plates were incubated for 14 days at 30 C and the presence or absence of fungal growth was noted and measured.

Molecules are shown by their SMILES.

Regarding `Oc1c(Cl)c(Cl)c(Cl)c(Cl)c1Cl` [PCP, pentachlorophenol], the growth of fungi result is listed as “completely inhibited”.

The record behind these values is patent US10264794B2, “Compositions comprising unsaturated fatty esters and uses thereof” (priority 2013, dated 2019).
